Results: ChEMBL document CHEMBL1275550, “In vitro activity of doripenem, a carbapenem for the treatment of challenging infections caused by gram-negative bacteria, against recent clinical isolates from the United States” (2008)
In brackets after ≈: the same amount, converted by molar mass.

How the values were obtained:
[1] = system: Enterobacteriaceae; experiment: Antimicrobial activity against Ceftazidime non-susceptible Enterobacteriaceae by broth microdilution method; assay type: functional
[2] = system: Enterobacteriaceae; experiment: Antimicrobial activity against ceftazidime-susceptible Enterobacteriaceae assessed as susceptible isolate by broth microdilution method; assay type: functional
[3] = system: Enterobacteriaceae; experiment: Antimicrobial activity against ceftazidime-susceptible Enterobacteriaceae assessed as intermediate isolate by broth microdilution method; assay type: functional
[4] = system: Enterobacteriaceae; experiment: Antimicrobial activity against ceftazidime-susceptible Enterobacteriaceae assessed as resistant isolate by broth microdilution method; assay type: functional
[5] = system: Enterobacteriaceae; experiment: Antimicrobial activity against Ceftazidime non-susceptible Enterobacteriaceae assessed as susceptible isolate by broth microdilution method; assay type: functional
[6] = system: Enterobacteriaceae; experiment: Antimicrobial activity against Ceftazidime non-susceptible Enterobacteriaceae assessed as intermediate isolate by broth microdilution method; assay type: functional
[7] = system: Enterobacteriaceae; experiment: Antimicrobial activity against Ceftazidime non-susceptible Enterobacteriaceae assessed as resistant isolate by broth microdilution method; assay type: functional
[8] = system: Escherichia coli; experiment: Antimicrobial activity against ESBL producing Escherichia coli by broth microdilution method; assay type: functional
[9] = system: Escherichia coli; experiment: Antimicrobial activity against Non-ESBL Escherichia coli assessed as susceptible isolate by broth microdilution method; assay type: functional
[10] = system: Escherichia coli; experiment: Antimicrobial activity against Non-ESBL Escherichia coli assessed as intermediate isolate by broth microdilution method; assay type: functional
[11] = system: Escherichia coli; experiment: Antimicrobial activity against ESBL producing Escherichia coli assessed as susceptible isolate by broth microdilution method; assay type: functional
[12] = system: Escherichia coli; experiment: Antimicrobial activity against ESBL producing Escherichia coli assessed as intermediate isolate by broth microdilution method; assay type: functional
[13] = system: Escherichia coli; experiment: Antimicrobial activity against ESBL producing Escherichia coli assessed as resistant isolate by broth microdilution method; assay type: functional
[14] = system: Klebsiella pneumoniae; experiment: Antimicrobial activity against Non-ESBL Klebsiella pneumoniae by broth microdilution method; assay type: functional
[15] = system: Klebsiella pneumoniae; experiment: Antimicrobial activity against ESBL producing Klebsiella pneumoniae by broth microdilution method; assay type: functional
[16] = system: Klebsiella pneumoniae; experiment: Antimicrobial activity against Non-ESBL Klebsiella pneumoniae assessed as susceptible isolate by broth microdilution method; assay type: functional
[17] = system: Klebsiella pneumoniae; experiment: Antimicrobial activity against Non-ESBL Klebsiella pneumoniae assessed as intermediate isolate by broth microdilution method; assay type: functional
[18] = system: Klebsiella pneumoniae; experiment: Antimicrobial activity against ESBL producing Klebsiella pneumoniae assessed as susceptible isolate by broth microdilution method; assay type: functional
[19] = system: Klebsiella pneumoniae; experiment: Antimicrobial activity against ESBL producing Klebsiella pneumoniae assessed as intermediate isolate by broth microdilution method; assay type: functional
[20] = system: Klebsiella pneumoniae; experiment: Antimicrobial activity against ESBL producing Klebsiella pneumoniae assessed as resistant isolate by broth microdilution method; assay type: functional
[21] = system: Proteus mirabilis; experiment: Antimicrobial activity against Non-ESBL Proteus mirabilis by broth microdilution method; assay type: functional
[22] = system: Proteus mirabilis; experiment: Antimicrobial activity against ESBL producing Proteus mirabilis by broth microdilution method; assay type: functional
[23] = system: Pseudomonas aeruginosa; experiment: Antimicrobial activity against Pseudomonas aeruginosa isolated from non-ICU patient by broth microdilution method; assay type: functional
[24] = system: Pseudomonas aeruginosa; experiment: Antimicrobial activity against Pseudomonas aeruginosa isolated from ICU patient by broth microdilution method; assay type: functional
[25] = system: Proteus mirabilis; experiment: Antimicrobial activity against Non-ESBL Proteus mirabilis assessed as susceptible isolate by broth microdilution method; assay type: functional
[26] = system: Proteus mirabilis; experiment: Antimicrobial activity against Non-ESBL Proteus mirabilis assessed as intermediate isolate by broth microdilution method; assay type: functional
[27] = system: Proteus mirabilis; experiment: Antimicrobial activity against ESBL producing Proteus mirabilis assessed as susceptible isolate by broth microdilution method; assay type: functional
[28] = system: Proteus mirabilis; experiment: Antimicrobial activity against ESBL producing Proteus mirabilis assessed as intermediate isolate by broth microdilution method; assay type: functional
[29] = system: Citrobacter; experiment: Antimicrobial activity against Citrobacter with nonderepressed AmpC beta-lactamsae by broth microdilution method; assay type: functional
[30] = system: Citrobacter; experiment: Antimicrobial activity against Citrobacter with derepressed AmpC beta-lactamsae by broth microdilution method; assay type: functional
[31] = system: Citrobacter; experiment: Antimicrobial activity against Citrobacter with nonderepressed AmpC beta-lactamsae assessed as susceptible isolate by broth microdilution method; assay type: functional
[32] = system: Citrobacter; experiment: Antimicrobial activity against Citrobacter with nonderepressed AmpC beta-lactamsae assessed as intermediate isolate by broth microdilution method; assay type: functional
[33] = system: Citrobacter; experiment: Antimicrobial activity against Citrobacter with derepressed AmpC beta-lactamsae assessed as susceptible isolate by broth microdilution method; assay type: functional
[34] = system: Citrobacter; experiment: Antimicrobial activity against Citrobacter with derepressed AmpC beta-lactamsae assessed as intermediate isolate by broth microdilution method; assay type: functional
[35] = system: Serratia marcescens; experiment: Antimicrobial activity against Ceftazidime non-susceptible Serratia marcescens by broth microdilution method; assay type: functional
[36] = system: Serratia marcescens; experiment: Antimicrobial activity against Ceftazidime susceptible Serratia marcescens assessed as susceptible isolate by broth microdilution method; assay type: functional
[37] = system: Serratia marcescens; experiment: Antimicrobial activity against Ceftazidime susceptible Serratia marcescens assessed as intermediate isolate by broth microdilution method; assay type: functional
[38] = system: Serratia marcescens; experiment: Antimicrobial activity against Ceftazidime non-susceptible Serratia marcescens assessed as susceptible isolate by broth microdilution method; assay type: functional
[39] = system: Serratia marcescens; experiment: Antimicrobial activity against Ceftazidime non-susceptible Serratia marcescens assessed as intermediate isolate by broth microdilution method; assay type: functional
[40] = system: Pseudomonas aeruginosa; experiment: Antimicrobial activity against Ceftazidime susceptible Pseudomonas aeruginosa by broth microdilution method; assay type: functional
[41] = system: Pseudomonas aeruginosa; experiment: Antimicrobial activity against imipenem non-susceptible Pseudomonas aeruginosa by broth microdilution method; assay type: functional
[42] = system: Pseudomonas aeruginosa; experiment: Antimicrobial activity against Ceftazidime susceptible Pseudomonas aeruginosa assessed as susceptible isolate by broth microdilution method; assay type: functional
[43] = system: Pseudomonas aeruginosa; experiment: Antimicrobial activity against Ceftazidime susceptible Pseudomonas aeruginosa assessed as intermediate isolate by broth microdilution method; assay type: functional
[44] = system: Pseudomonas aeruginosa; experiment: Antimicrobial activity against Ceftazidime susceptible Pseudomonas aeruginosa assessed as resistant isolate by broth microdilution method; assay type: functional
[45] = system: Pseudomonas aeruginosa; experiment: Antimicrobial activity against Ceftazidime non-susceptible Pseudomonas aeruginosa assessed as susceptible isolate by broth microdilution method; assay type: functional
[46] = system: Pseudomonas aeruginosa; experiment: Antimicrobial activity against Ceftazidime non-susceptible Pseudomonas aeruginosa assessed as intermediate isolate by broth microdilution method; assay type: functional
[47] = system: Pseudomonas aeruginosa; experiment: Antimicrobial activity against Ceftazidime non-susceptible Pseudomonas aeruginosa assessed as resistant isolate by broth microdilution method; assay type: functional
[48] = system: Pseudomonas aeruginosa; experiment: Antimicrobial activity against imipenem susceptible Pseudomonas aeruginosa assessed as susceptible isolate by broth microdilution method; assay type: functional
[49] = system: Pseudomonas aeruginosa; experiment: Antimicrobial activity against imipenem susceptible Pseudomonas aeruginosa assessed as intermediate isolate by broth microdilution method; assay type: functional
[50] = system: Pseudomonas aeruginosa; experiment: Antimicrobial activity against imipenem susceptible Pseudomonas aeruginosa assessed as resistant isolate by broth microdilution method; assay type: functional
[51] = system: Pseudomonas aeruginosa; experiment: Antimicrobial activity against imipenem non-susceptible Pseudomonas aeruginosa assessed as susceptible isolate by broth microdilution method; assay type: functional
[52] = system: Pseudomonas aeruginosa; experiment: Antimicrobial activity against imipenem non-susceptible Pseudomonas aeruginosa assessed as intermediate isolate by broth microdilution method; assay type: functional
[53] = system: Pseudomonas aeruginosa; experiment: Antimicrobial activity against imipenem non-susceptible Pseudomonas aeruginosa assessed as resistant isolate by broth microdilution method; assay type: functional
[54] = system: Acinetobacter; experiment: Antimicrobial activity against imipenem susceptible Acinetobacter by broth microdilution method; assay type: functional
[55] = system: Acinetobacter; experiment: Antimicrobial activity against imipenem non-susceptible Acinetobacter by broth microdilution method; assay type: functional
[56] = system: Acinetobacter; experiment: Antimicrobial activity against imipenem susceptible Acinetobacter assessed as susceptible isolate by broth microdilution method; assay type: functional
[57] = system: Acinetobacter; experiment: Antimicrobial activity against imipenem susceptible Acinetobacter assessed as intermediate isolate by broth microdilution method; assay type: functional
[58] = system: Acinetobacter; experiment: Antimicrobial activity against imipenem susceptible Acinetobacter assessed as resistant isolate by broth microdilution method; assay type: functional
[59] = system: Acinetobacter; experiment: Antimicrobial activity against imipenem non-susceptible Acinetobacter assessed as susceptible isolate by broth microdilution method; assay type: functional
[60] = system: Acinetobacter; experiment: Antimicrobial activity against imipenem non-susceptible Acinetobacter assessed as intermediate isolate by broth microdilution method; assay type: functional
[61] = system: Acinetobacter; experiment: Antimicrobial activity against imipenem non-susceptible Acinetobacter assessed as resistant isolate by broth microdilution method; assay type: functional
[62] = system: Pseudomonas aeruginosa; experiment: Antimicrobial activity against Pseudomonas aeruginosa isolated from patient by broth microdilution method
[63] = system: Pseudomonas aeruginosa; experiment: Antimicrobial activity against Pseudomonas aeruginosa isolated from non-ICU patient by broth microdilution method
[64] = system: Pseudomonas aeruginosa; experiment: Antimicrobial activity against Pseudomonas aeruginosa isolated from ICU patient assessed as resistant isolate by broth microdilution method
[65] = system: Pseudomonas aeruginosa; experiment: Antimicrobial activity against Pseudomonas aeruginosa isolated from ICU patient assessed as susceptible isolate by broth microdilution method
[66] = system: Pseudomonas aeruginosa; experiment: Antimicrobial activity against Pseudomonas aeruginosa isolated from ICU patient assessed as intermediate isolate by broth microdilution method
[67] = system: Pseudomonas aeruginosa; experiment: Antimicrobial activity against Pseudomonas aeruginosa isolated from non-ICU patient assessed as resistant isolate by broth microdilution method

CO/N=C(\C(=O)N[C@@H]1C(=O)N2C(C(=O)[O-])=C(C[N+]3(C)CCCC3)CS[C@H]12)c1csc(N)n1
MIC50 [1]: 2 µg/mL (≈ 4.16 µM) | MIC90 [1]: 32 µg/mL (≈ 66.6 µM) | Activity [2]: 99.8% | Activity [3]: 0% | Activity [4]: 0.1% | Activity [5]: 82.4% | Activity [6]: 5.6% | Activity [7]: 12% | MIC50 [8]: 32 µg/mL (≈ 66.6 µM) | MIC90 [8]: > 32 µg/mL | Activity [9]: 99.8% | Activity [10]: 0.1% | Activity [11]: 40% | Activity [12]: 3.3% | Activity [13]: 56.7% | MIC50 [14]: 0.03 µg/mL (≈ 0.0624 µM) | MIC90 [14]: 0.06 µg/mL (≈ 0.125 µM) | MIC50 [15]: 8 µg/mL (≈ 16.6 µM) | MIC90 [15]: > 32 µg/mL | Activity [16]: 99.7% | Activity [17]: 0.2% | Activity [18]: 68.2% | Activity [19]: 2.3% | Activity [20]: 29.5% | MIC50 [21]: 0.03 µg/mL (≈ 0.0624 µM) | MIC90 [21]: 0.06 µg/mL (≈ 0.125 µM) | MIC [22]: 1 µg/mL (≈ 2.08 µM) | MIC50 [23]: 4 µg/mL (≈ 8.32 µM) | MIC90 [23]: 16 µg/mL (≈ 33.3 µM) | MIC50 [24]: 4 µg/mL (≈ 8.32 µM) | MIC90 [24]: 16 µg/mL (≈ 33.3 µM) | Activity [25]: 99.7% | Activity [26]: 0.2% | Activity [27]: 100% | Activity [28]: 0% | MIC50 [29]: 0.03 µg/mL (≈ 0.0624 µM) | MIC90 [29]: 0.06 µg/mL (≈ 0.125 µM) | MIC50 [30]: 1 µg/mL (≈ 2.08 µM) | MIC90 [30]: 2 µg/mL (≈ 4.16 µM) | Activity [31]: 99.6% | Activity [32]: 0.2% | Activity [33]: 100% | Activity [34]: 0% | MIC50 [35]: 4 µg/mL (≈ 8.32 µM) | MIC90 [35]: 16 µg/mL (≈ 33.3 µM) | Activity [36]: 100% | Activity [37]: 0% | Activity [38]: 80% | Activity [39]: 10% | MIC50 [40]: 2 µg/mL (≈ 4.16 µM) | MIC90 [40]: 8 µg/mL (≈ 16.6 µM) | MIC50 [41]: 8 µg/mL (≈ 16.6 µM) | MIC90 [41]: 32 µg/mL (≈ 66.6 µM) | Activity [42]: 95.2% | Activity [43]: 3.8% | Activity [44]: 1% | Activity [45]: 25.5% | Activity [46]: 48.2% | Activity [47]: 26.4% | Activity [48]: 90.7% | Activity [49]: 7% | Activity [50]: 2.2% | Activity [51]: 72.5% | Activity [52]: 16.9% | Activity [53]: 10.6% | MIC50 [54]: 4 µg/mL (≈ 8.32 µM) | MIC90 [54]: 32 µg/mL (≈ 66.6 µM) | MIC50 [55]: 32 µg/mL (≈ 66.6 µM) | MIC90 [55]: > 32 µg/mL | Activity [56]: 73.1% | Activity [57]: 11.8% | Activity [58]: 15.1% | Activity [59]: 2% | Activity [60]: 33.3% | Activity [61]: 64.7% | Activity [62]: 8.2% | Activity [63]: 86.8% | Activity [64]: 6.5% | Activity [65]: 79.9% | Activity [66]: 13.7% | Activity [67]: 5.1%
